Common to all, as to type: in vivo
The test system of data set [1] is neointimal lesion development in the rat carotid artery. The data set can be described thus: Inhibition of neointimal lesion development in the rat carotid artery (balloon catheterization test). Particulars: for Maximal intimal height: mean ± SD. How it is done:
The anti-atherogenic activity has been confirmed also by measurement of the inhibition of neointimal lesion development in the rat carotid artery (balloon catheterization test, essentially as published in A. W. Clowes et al., Lab. Invest. 49 [1983]208-215).
In a first experiment a group of 12 rats was given PN 250 μg/kg/day in 10% ethanol-water s.c. A control group of 9 animals was non-injected and a further control group of 7 animals was vehicle-injected. Animals were randomized into 3 groups for catheterization and were weighed every other day throughout the study. Rats were anesthetized with ether inhalation. The […] region was shaved and the external branch of the left common carotid artery was isolated by an incision from the lower mandible to the clavicle, followed by retracting the submaxillary gland (lateral) and several muscle bundles including the sternohyoideus (medial), sternomastoideus (lateral) and digastricus posterior belly (lateral). […] Lidocaine was applied to vasodilate during catheter introduction. Following an incision with iris scissors, a Fogarty arterial embolectomy catheter (No. 2F) was inserted into the external branch of the carotid, passed into the aortic arch and slightly withdrawn to assure inflation of the catheter within the common carotid artery. The catheter was inflated using approximately 900 mmHg air pressure, drawn distally and deflated. This was repeated three times to assure complete de-endothelialization of the common carotid. The catheter was removed, the artery ligated and the incision closed. Under these conditions the carotid is completely de-endothelialized.
Animals were sacrificed 14 days after ballooning in the same sequence as the catheterization. Thirty minutes before fixation the animals were injected with a 2.25% Evan's Blue dye solution (1.5 mg/kg iv) to differentiate between the neointimal and re-endothelialized areas. Areas of the carotid that have endothelial regrowth exclude the dye and appear white. The remaining areas that lack endothelium are stained blue. Whole body (beating heart) perfusion fixations (90-110 mmHg) were then performed on anesthetized (sodium pentobarbital, 50.0 mg/kg ip) animals using 200 ml of 1% glutaraldehyde in 0.15M sodium cacodylate buffer (pH 7.4, 37° C., 410 mOsm) followed by 400 ml of 3% glutaraldehyde in 0.15M sodium cacodylate. The entry site of the fixative was a puncture in the left ventricle, with efflux collected by vacuum suction from the right atrium. The thoracic aorta flow was restricted to optimize carotid perfusion. Successful fixation was judged by upper body rigidity and an absence of blood from the large arteries.
In a second experiment the procedure as described above was followed, with groups consisting of non-injected controls (n=8), animals treated with PY (n=5) or PN (n=8). Animals received drug for 2 days before catheterization and to the conclusion of the study (14 days). PY and PN were given at 1.0 mg/kg in 10% EtOH-water s.c. All animals (controls and drug-treated) were randomized into 3 groups for catheterization.
After each experiment the fixed carotid was removed and cut into 3 segments (distal, central, proximal). Tissue processing of only the central segment included 18 hours in 3% buffered glutaraldehyde, buffer rinsing, dehydration in an ascending ethanol series and infiltration with Spurr's resin. The samples were embedded with cross-sectional orientation so that sectioning (0.5 μm) would include blue areas which have not re-endothelialized and show continued proliferative responses. A two-step polychromatic stain utilizing toluidine blue and 1.0% basic fuchsin rendered histological differentiation to nuclear, cytoplasmic and extracellular connective matrix components.
All light microscopic histology slides were randomized, encoded and evaluated utilizing a Zeiss standard microscope and the Videoplan computerized image analyzer. Vessel measurements included maximum lesion height. […]

For data set [2], the system named is ionized calcium concentration in the blood. The data set can be described thus: Rabbit test: ionized calcium in blood by calcium ion selective electrode. The conditions noted are these: PN alone. How it is done: (§1) The effect of the compounds of the invention in lowering calcium levels is indicated in any standard animal test for hypercalcemic activity. In one test the compound is administered to rabbits (e.g. ca. 1 kg in weight) either as a suspension e.g. 0.1 to 5 mg (e.g. 0, 1 mg) per ml of solution (i.e. blood plasma with ca. 1-5% alcohol) and 0.1-5 mg/kg animal body weight by intravenous infusion (0.5 ml per hour) or orally e.g. 1 to 5 mg/kg animal body weight as a suspension in distilled water. A significant lowering of calcium ions is observed using standard measuring techniques for calcium ions in the blood, e.g. using a calcium ion selective electrode, or by photometric methods.
One method for measuring calcium ion concentrations is as follows: […]
The concentration of ionized calcium in the blood is measured potentiometrically as follows: The difference in potential between the reference electrode and the Ca^2+ -selective electrode is measured differentially relative to the common electrode. The difference is amplified and the analogue signal produced by the amplifier is processed by a digital voltmeter and continuously recorded as a function of time, the difference in voltage being proportional to the Ca^2+ concentration. […]

Data set [3] concerns total calcium. The data set can be described thus: Rabbit intravenous experiment repeated, total calcium measured photometrically. The conditions noted are these: intravenous infusion, photometric. On the procedure:
as §1
The intravenous experiment is repeated measuring total calcium photometrically. Drop in calcium levels over 11/2 hours=23%, over 21/2 hours=30%.

Where [4] appears, read: Expt. 2, 1.0 mg/kg s.c. from 2 days before catheterization to day 14, controls 72.4 ± 17.4.

Regarding `COC(=O)C1=C(C)NC(C)=C(C(=O)OC(C)C)C1c1cccc2nonc12` (centres unmarked) [PN, 4-(2,1,3-benzoxadiazol-4yl)-1,4-dihydro-2,6-dimethyl-3-methoxycarbonyl-pyridine-5-carboxylic acid isopropyl ester], the “Inhibition of lesion development” value in data set [1] (Expt. 1, 0.25 mg/kg/d) is 26%; in data set [1] (Expt. 2, 1.0 mg/kg/d) it was 46%. The Maximal intimal height in data set [1] (Expt. 1, 0.25 mg/kg/day s.c., 14 days after ballooning, controls 84.9 ± 21.3) is reported as 63.2 ± 19.9 μm; in data set [1] (setting [4]), 38.9 ± 22.0 μm. Moreover, the “Lowering of ionized calcium” value was 10-20% in data set [2] (intravenous infusion, 0.5 mg/0.5/over 1 hour) and 5-10% in data set [2] (oral 1 mg/kg). In addition, the entries for the “Drop in calcium levels (total calcium)” value in data set [3] (over 11/2 hours) and in data set [3] (over 21/2 hours) were 23% and 30%, respectively.
In the case of `CCOC(=O)C1=C(C)NC(C)=C(C(=O)OCC)C1c1cccc2nonc12` [PY, 4-(2,1,3-benzoxadiazol-4-yl)-1,4-dihydro-2,6-dimethylpyridine-3,5-dicarboxylic acid diethyl ester], the Maximal intimal height in data set [1] (setting [4]) is reported as 58.6 ± 18.1 μm. Also, the “Inhibition of lesion development” value in data set [1] (Expt. 2, 1.0 mg/kg/d) worked out at 19%. Also, the Tolerability entry in data set [1] (rats, s.c., all doses used (0.25 and 1.0 mg/kg)) is recorded as “tolerated at all doses used”.

(Values after patent publication US5260321A, “Use of 1,4-dihydropyridine derivatives and combinations thereof with calcitonins” (priority 1984, dated 1993).)
